Laboratory results: ChEMBL document CHEMBL5120826, “Effects of β-lapachone and β-nor-lapachone on multidrug efflux transporters and biofilms of Candida glabrata” (Bioorg Med Chem, 2022)
Active and inactive are the calls of the source. The rule behind the calls is not given here.

Experiments:
Nakaseomyces glabratus [1] = experiment: Indifferent antifungal activity against fluconazole resistant Candida glabrata 109 overexpressing CgCdr1p transporter assessed as reduction in fungal growth incubated for 48 hrs in presence of lapachone by checkboard assay based microplate reader analysis; format: functional
Nakaseomyces glabratus [2] = experiment: Disruption of plasma membrane integrity in fluconazole resistant Candida glabrata 109 overexpressing CgCdr1p transporter assessed as fold increase in sytox green fluorescence intensity at 200 ug/ml incubated for 48 hrs by fluorescence based assay; format: functional; details: dose 200 µg/ml
Nakaseomyces glabratus [3] = experiment: Antibiofilm activity against fluconazole sensitive Candida glabrata ATCC 2001 assessed as reduction in metabolic activity up to 200 ug/ml incubated for 48 hrs; format: functional; parameters: scale not given: the % may be the effect or the level left; details: dose <= 200 µg/ml, up to 200 µg/mL
Nakaseomyces glabratus [4] = experiment: Disruption of plasma membrane integrity in fluconazole resistant Candida glabrata 109 overexpressing CgCdr1p transporter assessed as fold increase in sytox green fluorescence intensity at 50 ug/ml incubated for 48 hrs by fluorescence based assay; format: functional; details: dose 50 µg/ml
Saccharomyces cerevisiae [5] = experiment: Synergistic antifungal activity against fluconazole resistant Saccharomyces cerevisiae overexpressing CgCdr1p transporter assessed as reduction in fungal growth incubated for 48 hrs in presence of lapachone by checkboard assay based microplate reader analysis; format: functional
Saccharomyces cerevisiae [6] = experiment: Synergistic antifungal activity against fluconazole resistant Saccharomyces cerevisiae overexpressing CgCdr2p transporter assessed as reduction in fungal growth incubated for 48 hrs in presence of lapachone by checkboard assay based microplate reader analysis; format: functional
Saccharomyces cerevisiae [7] = experiment: Synergistic antifungal activity against fluconazole resistant Saccharomyces cerevisiae overexpressing CgCdr1p transporter assessed as fractional inhibitory concentration incubated for 48 hrs in presence of lapachone by checkboard assay based microplate reader analysis; format: functional
Saccharomyces cerevisiae [8] = experiment: Synergistic antifungal activity against fluconazole resistant Saccharomyces cerevisiae overexpressing CgCdr2p transporter assessed as fractional inhibitory concentration incubated for 48 hrs in presence of lapachone by checkboard assay based microplate reader analysis; format: functional
Saccharomyces cerevisiae [9] = experiment: Synergistic antifungal activity against fluconazole resistant Saccharomyces cerevisiae overexpressing CgCdr1p transporter assessed as reduction in fungal growth incubated for 48 hrs in presence of fluconazole by checkboard assay based microplate reader analysis; format: functional
Saccharomyces cerevisiae [10] = experiment: Synergistic antifungal activity against fluconazole resistant Saccharomyces cerevisiae overexpressing CgCdr2p transporter assessed as reduction in fungal growth incubated for 48 hrs in presence of fluconazole by checkboard assay based microplate reader analysis; format: functional
Saccharomyces cerevisiae [11] = experiment: Synergistic antifungal activity against fluconazole resistant Saccharomyces cerevisiae overexpressing CgCdr1p transporter assessed as fractional inhibitory concentration in presence of fluconazole incubated for 48 hrs by checkboard assay based microplate reader analysis; format: functional
Saccharomyces cerevisiae [12] = experiment: Synergistic antifungal activity against fluconazole resistant Saccharomyces cerevisiae overexpressing CgCdr2p transporter assessed as fractional inhibitory concentration in presence of fluconazole incubated for 48 hrs by checkboard assay based microplate reader analysis; format: functional
Saccharomyces cerevisiae [13] = experiment: Effect on efflux pump function in fluconazole resistant Saccharomyces cerevisiae overexpressing CgCdr1p transporter assessed as accumulation of Nile red fluorescence incubated for 1 hr by fluorescence based assay; format: functional
Saccharomyces cerevisiae [14] = experiment: Inhibition of fluconazole resistant Saccharomyces cerevisiae overexpressing CgCdr2p transporter ATPase activity assessed as reduction in inorganic phosphate release in presence of ATP incubated for 1 hr by Fiske and Sub barrow method; details: concentration not given here
Nakaseomyces glabratus [15] = experiment: Inhibition of fluconazole resistant Candida glabrata 109 overexpressing CgCdr1p transporter ATPase activity assessed as reduction in inorganic phosphate release in presence of ATP incubated for 1 hr by Fiske and Sub barrow method; details: concentration not given here
Erythrocyte [16] = experiment: Hemolytic activity in human erythrocytes assessed as haemoglobin release at 12.5 ug/ml incubated for 1 hr by absorbance based method; format: toxicity, cell-based; details: dose 12.5 µg/ml
Erythrocyte [17] = experiment: Hemolytic activity in human erythrocytes assessed as haemoglobin release at 12.5 ug/ml incubated for 1 hr in presence of fluconazole by absorbance based method; format: toxicity, cell-based; details: dose 12.5 µg/ml
[18] = Inhibition of fluconazole resistant Candida glabrata 109 overexpressing CgCdr1p transporter […] cell adhesion to polystyrene at 200 ug/ml incubated for 90 mins by MTT assay; format: functional; details: Nakaseomyces glabratus, 109, 1.5 h
Nakaseomyces glabratus [19] = experiment: Induction of ROS generation in fluconazole resistant Candida glabrata 109 overexpressing CgCdr1p transporter assessed as fold increase in ROS production at 200 ug/ml incubated for 48 hrs by DCFH-DA dye based fluorescence assay; format: functional
Nakaseomyces glabratus [20] = experiment: Induction of morphological changes in fluconazole resistant Candida glabrata 109 overexpressing CgCdr1p transporter assessed as decrease in cell-cell adhesion at 200 ug/ml by calcofluor white dye based confocal laser scanning microscopy; format: functional, organism-based; details: dose 200.0 µg/ml
Saccharomyces cerevisiae [21] = experiment: Synergistic antifungal activity against fluconazole resistant Saccharomyces cerevisiae overexpressing CgCdr1p transporter assessed as fractional inhibitory concentration index incubated for 48 hrs by checkboard assay based microplate reader analysis; format: functional
Erythrocyte [22] = experiment: Hemolytic activity in human erythrocytes assessed as haemoglobin release at 50 ug/ml incubated for 1 hr by absorbance based method; format: toxicity, cell-based; details: dose 50 µg/ml
Erythrocyte [23] = experiment: Hemolytic activity in human erythrocytes assessed as haemoglobin release at 50 ug/ml incubated for 1 hr in presence of fluconazole by absorbance based method; format: toxicity, cell-based; details: dose 50 µg/ml
Saccharomyces cerevisiae [24] = experiment: Additive antifungal activity against fluconazole resistant Saccharomyces cerevisiae overexpressing CgCdr1p transporter assessed as reduction in fungal growth incubated for 48 hrs in presence of lapachone by checkboard assay based microplate reader analysis; format: functional
Saccharomyces cerevisiae [25] = experiment: Additive antifungal activity against fluconazole resistant Saccharomyces cerevisiae overexpressing CgCdr1p transporter assessed as fractional inhibitory concentration incubated for 48 hrs in presence of lapachone by checkboard assay based microplate reader analysis; format: functional
Saccharomyces cerevisiae [26] = experiment: Additive antifungal activity against fluconazole resistant Saccharomyces cerevisiae overexpressing CgCdr1p transporter assessed as reduction in fungal growth incubated for 48 hrs in presence of fluconazole by checkboard assay based microplate reader analysis; format: functional
Saccharomyces cerevisiae [27] = experiment: Additive antifungal activity against fluconazole resistant Saccharomyces cerevisiae overexpressing CgCdr1p transporter assessed as fractional inhibitory concentration in presence of fluconazole incubated for 48 hrs by checkboard assay based microplate reader analysis; format: functional
Saccharomyces cerevisiae [28] = experiment: Additive antifungal activity against fluconazole resistant Saccharomyces cerevisiae overexpressing CgCdr1p transporter assessed as fractional inhibitory concentration index incubated for 48 hrs by checkboard assay based microplate reader analysis; format: functional

Structure (SMILES): CC1(C)CCC2=C(O1)c1ccccc1C(=O)C2=O [LAPACHONE]
- MIC (Nakaseomyces glabratus [1]): > 200 µg/mL
- fold change (FC) (Nakaseomyces glabratus [2]): 3
- Activity (Nakaseomyces glabratus [3]): 93%
- fold change (FC) (Nakaseomyces glabratus [4]): 1.6
- MIC (Saccharomyces cerevisiae [5]): 25 µg/mL
- MIC (Saccharomyces cerevisiae [6]): 6.25 µg/mL
- FIC (Saccharomyces cerevisiae [7]): 0.25 µg/mL
- FIC (Saccharomyces cerevisiae [8]): 0.25 µg/mL
- MIC (Saccharomyces cerevisiae [9]): 125 µg/mL
- MIC (Saccharomyces cerevisiae [10]): 3.9 µg/mL
- FIC (Saccharomyces cerevisiae [11]): 0.25 µg/mL
- FIC (Saccharomyces cerevisiae [12]): 0.06 µg/mL
- Activity (Saccharomyces cerevisiae [13]): 100%
- inhibition (Saccharomyces cerevisiae [14]): 46%
- inhibition (Nakaseomyces glabratus [15]): 49%
- Activity (Erythrocyte [16]): Non-Toxic
- Activity (Erythrocyte [17]): Non-Toxic
- inhibition at 200 µg/mL [18]: 44%
- fold change (FC) (Nakaseomyces glabratus [19]; dose 200 µg/ml): 16
- Activity (Nakaseomyces glabratus [20]): Active
- fractional inhibitory concentration index (FICI) (Saccharomyces cerevisiae [21]): 0.5

Structure (SMILES): CC1(C)CC2=C(O1)c1ccccc1C(=O)C2=O [NOR-BETA-LAPACHONE]
- MIC (Nakaseomyces glabratus [1]): > 200 µg/mL
- Activity (Nakaseomyces glabratus [3]): 81%
- Activity (Saccharomyces cerevisiae [13]): 100%
- Activity (Erythrocyte [22]): Non-Toxic
- Activity (Erythrocyte [23]): Non-Toxic
- Activity (Nakaseomyces glabratus [19]; dose 200.0 µg/ml): Active
- Activity (Nakaseomyces glabratus [20]): Active
- MIC (Saccharomyces cerevisiae [24]): 25 µg/mL
- FIC (Saccharomyces cerevisiae [25]): 0.5 µg/mL
- MIC (Saccharomyces cerevisiae [26]): 62.5 µg/mL
- FIC (Saccharomyces cerevisiae [27]): 0.125 µg/mL
- fractional inhibitory concentration index (FICI) (Saccharomyces cerevisiae [28]): 0.625
